The source made the active and inactive calls. The calls are words filed in the database; no cut-off is given here.
Columns and labels:
Rattus norvegicus [1] = assay: Antiosteoporotic activity in ovariectomized Sprague-Dawley rat assessed as prevention of bone mineral density loss at 1 to 3 ug/kg, po qd measured at 6th to 18th week by micro-CT analysis relative to OVX rat; assay type: functional, organism-based
Rattus norvegicus [2] = assay: Antiosteoporotic activity in ovariectomized Sprague-Dawley rat assessed as bone volume /tissue volume at 1 ug/kg, po qd at 18th week by micro-CT analysis (reference value: 27.36 +/- 1.99%); assay type: functional
Rattus norvegicus [3] = assay: Antiosteoporotic activity in ovariectomized Sprague-Dawley rat assessed as trabecular thickness at 1 ug/kg, po qd at 18th week by micro-CT analysis (reference value: 0.103 +/- 0.0044 millimeter); assay type: functional, Trabecula
Rattus norvegicus [4] = assay: Antiosteoporotic activity in ovariectomized Sprague-Dawley rat assessed as trabecular separation at 10 ug/kg, po qd at 6th week by micro-CT analysis (reference value: 0.116 +/- 0.010 millimeter); assay type: functional, Trabecula
Rattus norvegicus [5] = assay: Antiosteoporotic activity in ovariectomized Sprague-Dawley rat assessed as trabecular thickness at 10 ug/kg, po qd at 18th week by micro-CT analysis (reference value: 0.103 +/- 0.0044 millimeter); assay type: functional, Trabecula
Rattus norvegicus [6] = assay: Antiosteoporotic activity in ovariectomized Sprague-Dawley rat assessed as bone volume /tissue volume at 1 ug/kg, po qd at 12th week by micro-CT analysis (reference value: 31.61 +/- 2.39%); assay type: functional
[7] = target: T1, Estrogen receptor (Homo sapiens) (UniProt P03372); assay: Antagonist activity at ERalpha (301 to 553 amino acid residues) (unknown origin) assessed as inhibition of E2 induced interaction with SRC1 after 24 hrs by yeast-two-hybrid assay; parameters: concentration or dose not given beside the values
T1 sequence (whole entry): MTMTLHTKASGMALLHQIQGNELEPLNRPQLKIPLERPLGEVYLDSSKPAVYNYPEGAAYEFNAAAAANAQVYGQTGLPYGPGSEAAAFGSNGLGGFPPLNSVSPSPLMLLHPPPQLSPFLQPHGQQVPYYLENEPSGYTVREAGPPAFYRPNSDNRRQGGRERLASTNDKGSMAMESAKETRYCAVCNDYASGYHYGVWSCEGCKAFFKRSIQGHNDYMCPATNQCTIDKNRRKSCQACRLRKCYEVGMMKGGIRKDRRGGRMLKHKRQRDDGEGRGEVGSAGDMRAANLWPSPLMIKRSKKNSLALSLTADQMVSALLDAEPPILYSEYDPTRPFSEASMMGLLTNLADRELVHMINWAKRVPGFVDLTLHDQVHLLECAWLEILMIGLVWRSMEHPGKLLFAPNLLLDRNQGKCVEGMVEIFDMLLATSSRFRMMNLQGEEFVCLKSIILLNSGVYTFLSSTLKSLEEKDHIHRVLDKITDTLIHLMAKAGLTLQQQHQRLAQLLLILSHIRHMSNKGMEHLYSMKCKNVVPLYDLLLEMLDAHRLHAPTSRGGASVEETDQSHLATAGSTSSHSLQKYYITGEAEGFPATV

Rattus norvegicus [8] = assay: Antiosteoporotic activity in ovariectomized Sprague-Dawley rat assessed as trabecular separation at 10 ug/kg, po qd at 18th week by micro-CT analysis (reference value: 0.234 +/- 0.021 millimeter); assay type: functional, Trabecula
Rattus norvegicus [9] = assay: Antiosteoporotic activity in ovariectomized Sprague-Dawley rat assessed as bone volume /tissue volume at 10 ug/kg, po qd at 18th week by micro-CT analysis (reference value: 27.36 +/- 1.99%); assay type: functional
Rattus norvegicus [10] = assay: Antiosteoporotic activity in ovariectomized Sprague-Dawley rat assessed as trabecular thickness at 10 ug/kg, po qd at 12th week by micro-CT analysis (reference value: 0.070 +/- 0.0063 millimeter); assay type: functional, Trabecula
Rattus norvegicus [11] = assay: Antiosteoporotic activity in ovariectomized Sprague-Dawley rat assessed as trabecular separation at 1 ug/kg, po qd at 6th week by micro-CT analysis (reference value: 0.116 +/- 0.010 millimeter); assay type: functional, Trabecula
Rattus norvegicus [12] = assay: Antiosteoporotic activity in ovariectomized Sprague-Dawley rat assessed as trabecular thickness at 1 ug/kg, po qd at 12th week by micro-CT analysis (reference value: 0.070 +/- 0.0063 millimeter); assay type: functional, Trabecula
Rattus norvegicus [13] = assay: Antiosteoporotic activity in ovariectomized Sprague-Dawley rat assessed as trabecular separation at 1 ug/kg, po qd at 18th week by micro-CT analysis (reference value: 0.234 +/- 0.021 millimeter); assay type: functional, Trabecula
Rattus norvegicus [14] = assay: Antiosteoporotic activity in ovariectomized Sprague-Dawley rat assessed as bone volume /tissue volume at 3 ug/kg, po qd at 18th week by micro-CT analysis (reference value: 27.36 +/- 1.99%); assay type: functional
Rattus norvegicus [15] = assay: Antiosteoporotic activity in ovariectomized Sprague-Dawley rat assessed as trabecular thickness recovery at 10 ug/kg, po qd measured at 18th week by micro-CT analysis relative to SHAM control; assay type: functional, Trabecula
Rattus norvegicus [16] = assay: Antiosteoporotic activity in ovariectomized Sprague-Dawley rat assessed as trabecular separation recovery at 10 ug/kg, po qd measured at 18th week by micro-CT analysis relative to SHAM control; assay type: functional, organism-based; conditions: Trabecula
Rattus norvegicus [17] = assay: Antiosteoporotic activity in ovariectomized Sprague-Dawley rat assessed as decrease in serum osteocalcin level at 10 ug/kg, po qd at 18th week by enzyme immunoassay relative to SHAM control; assay type: functional, organism-based
Rattus norvegicus [18] = assay: Antiosteoporotic activity in ovariectomized Sprague-Dawley rat assessed as serum osteocalcin level at 10 ug/kg, po qd at 18th week by enzyme immunoassay (reference value: 1118.9 +/- 37.77 ng/ml); assay type: functional
Rattus norvegicus [19] = assay: Antiosteoporotic activity in ovariectomized Sprague-Dawley rat assessed as bone volume /tissue volume at 10 ug/kg, po qd at 6th week by micro-CT analysis (reference value: 41.33 +/- 5.04%); assay type: functional
Rattus norvegicus [20] = assay: Antiosteoporotic activity in ovariectomized Sprague-Dawley rat assessed as decrease in serum osteocalcin level at 3 ug/kg, po qd at 18th week by enzyme immunoassay relative to SHAM control; assay type: functional, organism-based
Rattus norvegicus [21] = assay: Antiosteoporotic activity in ovariectomized Sprague-Dawley rat assessed as trabecular separation at 3 ug/kg, po qd at 12th week by micro-CT analysis (reference value: 0.146 +/- 0.010 millimeter); assay type: functional, Trabecula
Rattus norvegicus [22] = assay: Antiosteoporotic activity in ovariectomized Sprague-Dawley rat assessed as serum osteocalcin level at 3 ug/kg, po qd at 18th week by enzyme immunoassay (reference value: 1118.9 +/- 37.77 ng/ml); assay type: functional
Rattus norvegicus [23] = assay: Antiosteoporotic activity in ovariectomized Sprague-Dawley rat assessed as trabecular separation at 3 ug/kg, po qd at 18th week by micro-CT analysis (reference value: 0.234 +/- 0.021 millimeter); assay type: functional, Trabecula
Rattus norvegicus [24] = assay: Antiosteoporotic activity in ovariectomized Sprague-Dawley rat assessed as bone mineral density recovery at 10 ug/kg, po qd measured at 18th week by micro-CT analysis relative to SHAM control; assay type: functional
Rattus norvegicus [25] = assay: Antiosteoporotic activity in ovariectomized Sprague-Dawley rat assessed as bone volume /tissue volume at 3 ug/kg, po qd at 12th week by micro-CT analysis (reference value: 31.61 +/- 2.39%); assay type: functional

With `O=C1c2cc(O)cc(O)c2[C@@H](c2ccc(O)cc2)[C@@H]1c1cc(O)cc(O)c1` [ISOPAUCIFLORAL F] the Activity (Rattus norvegicus [1]) was “inactive”, the Activity (Rattus norvegicus [2]) was 35.56% and the Activity (Rattus norvegicus [3]) was 0.106 mm. The Activity (Rattus norvegicus [4]) was 0.118 mm, the Activity (Rattus norvegicus [5]) was 0.212 mm and the Activity (Rattus norvegicus [6]) was 31.46%. The Activity [7] was 9.45%, the Activity (Rattus norvegicus [8]) was 0.096 mm and the Activity (Rattus norvegicus [9]) was 66.42%. It also gave an Activity (Rattus norvegicus [10]) of 0.087 mm, an Activity (Rattus norvegicus [11]) of 0.104 mm and an Activity (Rattus norvegicus [12]) of 0.086 mm. For the same compound, the Activity (Rattus norvegicus [13]) was 0.183 mm, the Activity (Rattus norvegicus [14]) was 36.45% and the Activity (Rattus norvegicus [15]) was 78%. The Activity (Rattus norvegicus [16]) was “inactive”, the Activity (Rattus norvegicus [17]) was “Active” and the Activity (Rattus norvegicus [18]) was 702.2 ng/mL. For the same compound, the Activity (Rattus norvegicus [19]) was 40.25%, the Activity (Rattus norvegicus [20]) was “Active” and the Activity (Rattus norvegicus [21]) was 0.173 mm. It also gave an Activity (Rattus norvegicus [22]) of 713.24 ng/mL, an Activity (Rattus norvegicus [23]) of 0.183 mm and an Activity (Rattus norvegicus [24]) of 90%. For the same compound, the Activity (Rattus norvegicus [25]) was 41.01%.
